The results in this text go back to ChEMBL document CHEMBL4177527, “Synthesis and biological evaluation of a D-ring-contracted analogue of lamellarin D” (Bioorg Med Chem, 2017).

A short description of assay [1]: Resistance index, ratio of IC50 for human CEM/ADR5000 cells to IC50 for human CCRF-CEM cells. Format: functional.
Assay [2] deals with CCRF-CEM. Kind of assay: Cytotoxicity against human CCRF-CEM cells assessed as reduction in cell viability after 72 hrs by resazurin reduction assay. Format: functional, cell-based. For orientation: Resazurin is reduced to fluorescent resorufin, in cell work by metabolically active cells.
For assay [3], the system named is CCRF-CEM. Put plainly: Induction of apoptosis in human CCRF-CEM cells at 0.055 to 0.44 uM after 24 to 72 hrs by propidium iodide staining-based flow cytometry. Format: functional, cell-based.
In assay [4] the test system is CCRF-CEM. Kind of assay: Cell cycle arrest in human CCRF-CEM cells assessed as accumulation at SubG1 phase at 0.055 to 0.44 uM after 72 hrs by propidium iodide staining-based flow cytometry. It is filed as functional. Background: In flow cytometry, cells or beads pass a laser one at a time.
Assay [5] relates to CCRF-CEM. Kind of assay: Cell cycle arrest in human CCRF-CEM cells assessed as accumulation at G2/M phase at 0.055 to 0.44 uM after 6 to 72 hrs by propidium iodide staining-based flow cytometry. Format: functional.
Assay [6] concerns CCRF-CEM. Put plainly: Cell cycle arrest in human CCRF-CEM cells assessed as accumulation at S phase at 0.055 to 0.44 uM after 6 to 72 hrs by propidium iodide staining-based flow cytometry. It is filed as functional.
Another assay relates to ADR5000 cell line. Put plainly: Cytotoxicity against human CEM/ADR5000 cells assessed as reduction in cell viability after 72 hrs by resazurin reduction assay. As to conditions: ADR5000, 72 h. It is filed as functional, cell-based.
Assay [7] has as its system CCRF-CEM. Kind of assay: Induction of apoptosis in human CCRF-CEM cells at 0.01 uM after 72 hrs by propidium iodide staining-based flow cytometry. Format: functional, cell-based.
The subject of assay [8] is CCRF-CEM. Put plainly: Cell cycle arrest in human CCRF-CEM cells assessed as accumulation at G2/M phase after 24 hrs by propidium iodide staining-based flow cytometry. It is filed as functional.
Assay [9] has as its system CCRF-CEM. Kind of assay: Cell cycle arrest in human CCRF-CEM cells assessed as accumulation at S phase at 0.01 uM after 6 hrs by propidium iodide staining-based flow cytometry. Format: functional.

Activity calls are given as the source filed them. The calls are words filed in the database; no cut-off is given here.

One may read the IC50 as the concentration needed to halve the response being measured. As for `COc1cc(-c2c3c(n4ccc5cc(O)c(OC)cc5c24)C(=O)c2cc(O)c(OC)cc2-3)ccc1O`, the “Ratio IC50” value in [1] worked out at 1.5. Further, the 50% inhibitory concentration (IC50) with CCRF-CEM [2] was 113 nM; in the assay on ADR5000 cell line it was 172 nM. Also, the result in the assay on CCRF-CEM [3] and in the assay on CCRF-CEM [4] was Active. For the same compound, the outcome in the assay with CCRF-CEM [5] and with CCRF-CEM [6] was inactive.
With `CC[C@@]1(O)C(=O)OCc2c1cc1n(c2=O)Cc2cc3ccccc3nc2-1` [CAMPTOTHECIN], the “Ratio IC50” value in [1] is listed as 3.7. Also, the half-maximal inhibitory concentration (IC50) in the assay with CCRF-CEM [2] was determined as 3 nM; with ADR5000 cell line, 11 nM. For the same compound, the result with CCRF-CEM [7] and in the assay on CCRF-CEM [9] was Active. In addition, the Activity entry in the assay on CCRF-CEM [8] is “Dose-dependent effect”.
